The values that follow come from patent publication US8586505B2 (SDS Biotech K. K., priority 2009, dated 2013).

Common to all, as to type: in vivo
Assay [1] concerns Phytophthora infestans. Put plainly: whole plant or invertebrate. To be noted: in Solanum lycopersicum, 96 h, read-out: Determination of control effect (preventive value).
The test system of assay [2] is Pseudoperonospora cubensis. The experiment in a line: Test of examining control effect on Pseudoperonospora cubensis (potted cucumber plants). As to conditions: 96 h, 10% wettable powder adjusted to 125 ppm, 15 ml/pot sprayed on potted cucumber plants one day before spray inoculation, assessed after 1 day wet chamber and 3 days greenhouse, read-out: Determination of control effect (preventive value) on Pseudoperonospora cubensis. As to the method: (§1) Calculation of Preventive Value: Preventive value={(untreated lesion area rate−treated lesion area rate)/untreated lesion area rate}×100
(§2) Using the thus calculated preventive value, the control effect of each compound was determined in accordance with the following standards.
(§3) High control effect: 100%≧preventive value≧60%
(§4) Low control effect: 60%>preventive value≧0%
Using a spray gun, an agent solution prepared by adjusting a 10% wettable powder of each sample compound to 125 ppm (hereinafter referred to as a “sample agent solution”) was sprayed to potted cucumber plants (variety: Sagamihanjiro, 2.5 leave stage) in a concentration of 15 ml/pot. One day after the spraying, a conidial suspension of Pseudoperonospora cubensis (conidial concentration: 1.0×10^4 cells/ml) was applied to the plants by spray inoculation. After completion of the inoculation, the plants were left at 21° C. under wet chamber conditions for 1 day, and were then left in a greenhouse for 3 days, so that they were fully infected with the aforementioned disease. Thereafter, the disease level on each leaf was compared with that on an untreated leaf, and the control effect of each compound was determined in the same manner as in Example 3(1).

For assay [3], the system named is Sphaerotheca fuliginea. The experiment in a line: Test of examining control effect on Sphaerotheca fuliginea (potted cucumber plants). To be noted: Podosphaera fuliginea, 336 h; 10% wettable powder adjusted to 125 ppm, 15 ml/pot sprayed on potted cucumber plants one day before spray inoculation; assessed after 14 days in greenhouse; read-out: Determination of control effect (preventive value) on Sphaerotheca fuliginea. As to the method:
as §1, §2, §3, §4
Using a spray gun, an agent solution prepared by adjusting a 10% wettable powder of each sample compound to 125 ppm (hereinafter referred to as a “sample agent solution”) was sprayed to potted cucumber plants (variety: Sagamihanjiro, 2nd leave stage) in a concentration of 15 ml/pot. One day after the spraying, a conidial suspension of Sphaerotheca fuliginea (conidial concentration: 1.0×10^5 cells/ml) was applied to the plants by spray inoculation. The plants were left in a greenhouse for 14 days, so that they were fully infected with the aforementioned disease. Thereafter, the disease level on each leaf was compared with that on an untreated leaf, and the control effect of each compound was determined in the same manner as in Example 3(1).

With `C[Si](C)(C)C#CCCNc1ncnc2sccc12` [Compound No. 2, 4-(4-Trimethylsilanyl-3-butynylamino)thieno[2,3-d]pyrimidine], the pest or weed control at 125 ppm in assay [1] was in the range of 60 to 100%. In addition, the pest or weed control at 125 µg/mL in assay [2] and in assay [3] was 60 to 100% throughout.
Consider `C#CCCNc1ncnc2sccc12` [compound 1, 4-(3-butynylamino)thieno[2,3-d]pyrimidine], for which the pest or weed control at 125 ppm in assay [1] was 0 to 60%. The pest or weed control at 125 µg/mL in assay [2] and in assay [3] was 0 to 60% each time.
Consider `CC[Si](C#CCCNc1ncnc2sccc12)(CC)CC` [compound 3], for which the pest or weed control at 125 ppm in assay [1] is 0 to 60%. The pest or weed control at 125 µg/mL in assay [2] and in assay [3] was 60 to 100% in each case.
Take `CC(C)CC#CCCNc1ncnc2sccc12` [compound 7, 4-(6-Methyl-3-heptynylamino)thieno[2,3-d]pyrimidine]: the pest or weed control at 125 ppm in assay [1] is 60 to 100%. In addition, the pest or weed control at 125 µg/mL in assay [2] and in assay [3] was 60 to 100% throughout.
For `CC(C)(C)C#CCCNc1ncnc2sccc12` [compound 8], the pest or weed control at 125 ppm in assay [1] was 60 to 100%. The pest or weed control at 125 µg/mL in assay [2] and in assay [3] was 60 to 100% in each case.
`C(#CCc1ccccc1)CCNc1ncnc2sccc12` [compound 9]: the pest or weed control at 125 ppm in assay [1] lay in the range of 0 to 60%. Besides, the pest or weed control at 125 µg/mL in assay [2] and in assay [3] was 60 to 100% throughout.
For the compound `Fc1ccccc1C#CCCNc1ncnc2sccc12` [compound 11], the pest or weed control at 125 ppm in assay [1] was 60 to 100%. The pest or weed control at 125 µg/mL in assay [2] and in assay [3] was 60 to 100% throughout.
Regarding `Fc1cccc(C#CCCNc2ncnc3sccc23)c1` [compound 12], the pest or weed control at 125 ppm in assay [1] was in the range of 0 to 60%. For the same compound, the pest or weed control at 125 µg/mL in assay [2] and in assay [3] was 60 to 100% each time.
For the compound `Fc1ccc(C#CCCNc2ncnc3sccc23)cc1` [compound 13], in assay [1], the pest or weed control at 125 ppm was 0 to 60%. In addition, the pest or weed control at 125 µg/mL in assay [2] and in assay [3] was 60 to 100% throughout.
`Clc1ccccc1C#CCCNc1ncnc2sccc12` [compound 14]: in assay [1], the pest or weed control at 125 ppm lay in the range of 0 to 60%. Moreover, the pest or weed control at 125 µg/mL in assay [2] and in assay [3] was 60 to 100% in each case.
With `Clc1cccc(C#CCCNc2ncnc3sccc23)c1` [compound 15], in assay [1], the pest or weed control at 125 ppm fell in the range of 0 to 60%. Also, the pest or weed control at 125 µg/mL in assay [2] and in assay [3] was 60 to 100% in each case.
On to `Cc1ccccc1C#CCCNc1ncnc2sccc12` [compound 17], for which, in assay [1], the pest or weed control at 125 ppm is 60 to 100%. Besides, the pest or weed control at 125 µg/mL in assay [2] and in assay [3] was 60 to 100% throughout.
Turning to `COc1ccccc1C#CCCNc1ncnc2sccc12` [compound 21], the pest or weed control at 125 ppm in assay [1] is 60 to 100%. Moreover, the pest or weed control at 125 µg/mL in assay [2] lay in the range of 60 to 100%; in assay [3], 0 to 60%.
For the compound `COc1ccc(C#CCCNc2ncnc3sccc23)cc1` [compound 23], in assay [1], the pest or weed control at 125 ppm fell in the range of 60 to 100%. Also, the pest or weed control at 125 µg/mL in assay [2] and in assay [3] was 60 to 100% in each case.
As to `FC(F)(F)c1ccccc1C#CCCNc1ncnc2sccc12` [compound 25], in assay [1], the pest or weed control at 125 ppm was 60 to 100%. Also, the pest or weed control at 125 µg/mL in assay [2] and in assay [3] was 60 to 100% throughout.
In the case of `FC(F)(F)c1ccc(C#CCCNc2ncnc3sccc23)cc1` [compound 27], the pest or weed control at 125 ppm in assay [1] lay in the range of 0 to 60%. In addition, the pest or weed control at 125 µg/mL in assay [2] and in assay [3] was 60 to 100% throughout.
Turning to `COC(=O)c1ccc(C#CCCNc2ncnc3sccc23)cc1` [compound 31], the pest or weed control at 125 ppm in assay [1] lay in the range of 0 to 60%. In addition, the pest or weed control at 125 µg/mL in assay [2] lay in the range of 60 to 100%; in assay [3] it was 0 to 60%.
With `FC(F)(F)Oc1ccccc1C#CCCNc1ncnc2sccc12` [compound 32], in assay [1], the pest or weed control at 125 ppm is 60 to 100%. The pest or weed control at 125 µg/mL in assay [2] was 60 to 100%.
Consider `FC(F)(F)Oc1cccc(C#CCCNc2ncnc3sccc23)c1` [compound 33], for which the pest or weed control at 125 ppm in assay [1] was 60 to 100%. Moreover, the pest or weed control at 125 µg/mL in assay [2] fell in the range of 60 to 100%.
In the case of `FC(F)(F)Oc1ccc(C#CCCNc2ncnc3sccc23)cc1` [compound 34], the pest or weed control at 125 ppm in assay [1] lay in the range of 60 to 100%. Further, the pest or weed control at 125 µg/mL in assay [2] lay within 60 to 100%.
For `N#Cc1ccccc1C#CCCNc1ncnc2sccc12` [compound 35], the pest or weed control at 125 ppm in assay [1] lay within 60 to 100%. The pest or weed control at 125 µg/mL in assay [2] fell in the range of 60 to 100%.
Consider `N#Cc1cccc(C#CCCNc2ncnc3sccc23)c1` [compound 36], for which, in assay [1], the pest or weed control at 125 ppm is 60 to 100%. Also, in assay [2], the pest or weed control at 125 µg/mL was 60 to 100%.
As for `N#Cc1ccc(C#CCCNc2ncnc3sccc23)cc1` [compound 37], in assay [1], the pest or weed control at 125 ppm lay within 60 to 100%. Further, the pest or weed control at 125 µg/mL in assay [2] lay within 60 to 100%.
With `OCc1ccccc1C#CCCNc1ncnc2sccc12` [compound 44], in assay [1], the pest or weed control at 125 ppm lay within 60 to 100%. In assay [2], the pest or weed control at 125 µg/mL fell in the range of 60 to 100%.
Take `COCc1ccccc1C#CCCNc1ncnc2sccc12` [compound 45]: the pest or weed control at 125 ppm in assay [1] is 60 to 100%. Further, in assay [2], the pest or weed control at 125 µg/mL fell in the range of 60 to 100%.
On to `CCOCc1ccccc1C#CCCNc1ncnc2sccc12` [compound 46], for which, in assay [1], the pest or weed control at 125 ppm was 60 to 100%. In assay [2], the pest or weed control at 125 µg/mL fell in the range of 60 to 100%.
Regarding `FCc1ccccc1C#CCCNc1ncnc2sccc12` [compound 47], in assay [1], the pest or weed control at 125 ppm fell in the range of 60 to 100%. For the same compound, the pest or weed control at 125 µg/mL in assay [2] fell in the range of 60 to 100%.
Turning to `O=Cc1ccccc1C#CCCNc1ncnc2sccc12` [compound 48], in assay [1], the pest or weed control at 125 ppm was 60 to 100%. Also, the pest or weed control at 125 µg/mL in assay [2] lay in the range of 60 to 100%.
Take `COCc1ccccc1C#CCCNc1ncnc2ccsc12` [compound 49]: the pest or weed control at 125 ppm in assay [1] fell in the range of 60 to 100%. Besides, the pest or weed control at 125 µg/mL in assay [2] fell in the range of 60 to 100%.
Turning to `COCc1ccccc1C#CCCNc1ncnc2c(C)csc12` [compound 50], the pest or weed control at 125 ppm in assay [1] fell in the range of 60 to 100%. For the same compound, the pest or weed control at 125 µg/mL in assay [2] is 60 to 100%.
As for `COCc1ccccc1C#CCCNc1ncnc2scc(C)c12` [compound 51], in assay [1], the pest or weed control at 125 ppm fell in the range of 60 to 100%. Besides, in assay [2], the pest or weed control at 125 µg/mL was 60 to 100%.
With `C(#Cc1ccoc1)CCNc1ncnc2sccc12` [compound 52], the pest or weed control at 125 ppm in assay [1] was in the range of 0 to 60%. Also, the pest or weed control at 125 µg/mL in assay [2] lay within 60 to 100%.
For the compound `C(#Cc1cccs1)CCNc1ncnc2sccc12` [compound 53], the pest or weed control at 125 ppm in assay [1] fell in the range of 0 to 60%. Moreover, the pest or weed control at 125 µg/mL in assay [2] was in the range of 60 to 100%.
With `C(#Cc1ccsc1)CCNc1ncnc2sccc12` [compound 54], the pest or weed control at 125 ppm in assay [1] lay in the range of 0 to 60%. The pest or weed control at 125 µg/mL in assay [2] was 60 to 100%.
Consider `C(#Cc1ccccn1)CCNc1ncnc2sccc12` [compound 55], for which the pest or weed control at 125 ppm in assay [1] lay within 60 to 100%. Moreover, the pest or weed control at 125 µg/mL in assay [2] lay within 60 to 100%.
Take `C(#Cc1ncccn1)CCNc1ncnc2sccc12` [compound 58]: the pest or weed control at 125 ppm in assay [1] lay within 60 to 100%. In addition, the pest or weed control at 125 µg/mL in assay [2] fell in the range of 60 to 100%; in assay [3], 0 to 60%.
As for `COc1cc(OC)nc(C#CCCNc2ncnc3sccc23)n1` [compound 60], the pest or weed control at 125 ppm in assay [1] lay in the range of 60 to 100%. In addition, the pest or weed control at 125 µg/mL was 60 to 100% in assay [2] and 0 to 60% in assay [3].
With `Brc1csc(C#CCCNc2ncnc3sccc23)n1` [compound 64], the pest or weed control at 125 ppm in assay [1] is 0 to 60%. Further, the pest or weed control at 125 µg/mL is 60 to 100% in assay [2] and 0 to 60% in assay [3].
`COc1nc(C#CCCNc2ncnc3sccc23)cs1` [compound 67]: the pest or weed control at 125 ppm in assay [1] was 60 to 100%. The pest or weed control at 125 µg/mL in assay [2] and in assay [3] was 60 to 100% in each case.
With `FCc1nc(C#CCCNc2ncnc3sccc23)cs1` [compound 68], the pest or weed control at 125 ppm in assay [1] was 60 to 100%. Further, the pest or weed control at 125 µg/mL in assay [2] and in assay [3] was 60 to 100% in each case.
Consider `CC(=O)Nc1ccccc1C#CCCNc1ncnc2ccccc12` [compound 160], for which, in assay [1], the pest or weed control at 125 ppm lay in the range of 0 to 60%. The pest or weed control at 125 µg/mL in assay [2] was in the range of 0 to 60%.
Regarding `Cc1ccc(C#CCC(C)Nc2ncnc3sccc23)c(Cl)c1` (centres unmarked) [compound 255], the pest or weed control at 125 ppm in assay [1] is 60 to 100%. Also, the pest or weed control at 125 µg/mL in assay [3] is 60 to 100%.
On to `CC(CC#Cc1c(Cl)cc(F)cc1Cl)Nc1ncnc2sccc12` (centres unmarked) [compound 261], for which the pest or weed control at 125 µg/mL in assay [2] and in assay [3] was 60 to 100% throughout.
As for `Cc1cc(C)c(C#CCC(C)Nc2ncnc3sccc23)c(C)c1` (centres unmarked) [compound 263], the pest or weed control at 125 µg/mL in assay [2] and in assay [3] was 60 to 100% throughout.
